Source: patent publication US7465783B2, “Plant peptide with antimicrobial activity” (Centre National de la Recherche Scientifique, priority 2002, dated 2008)
Ends that are not written are not given here.

Key:
Format in all cases: cell-based
[1] = test system: protoplasts of Arabidopsis thaliana
Text: This experiment has the aim of determining whether the effect of the peptide on the viability of the protoplasts of Arabidopsis thaliana corresponds to the cell necrosis or else to the implementation of the process of programmed cell death or apoptosis.
Apoptosis is distinguished from necrosis by a rigorous staging of death, punctuated by a set of genetically controlled events (Vaux and Korsmeyer (Cell, 1999, 96: 245-254); Pennell and Lamb (Plant Cell, 1997, 9: 1157-1168); Greenberg (P.N.A.S., 1996, 93: 12094-12097)). […] The TUNEL reaction allows the free 3′OH ends present in great quantity in the nuclei whose DNA is fragmented in the course of the process of apoptosis to be labeled.
The external application of the peptide of 25 amino acids to protoplasts of Arabidopsis thaliana at 5 μM for 2 hours allows an increase in the population of positive TUNEL protoplasts to be observed (FIG. 5B). 4 times more nuclei show DNA fragmentation characteristics with respect to the control.

[2] = test system: Pseudomonas syringae pv tomato strain DC3000; assay: Antimicrobial (bacteriostatic) activity, peptide drops on TOPagar lawn
Protocol: (§1) Toxicity experiments on the peptide of 25 amino acids (SUP 25) purified in the preceding example on different bacteria were carried out. The different bacteria are cultured in 5 ml of LB medium or of medium appropriate to the strain, and then sedimented by centrifugation at 3000 g, and finally taken up in a volume of LB identical to the volume of bacteria. 50 μl of bacteria are inoculated into 9 ml of liquid TOPagar (LB+7 g/l of bactoagar) at 48° C. and rapidly poured into a square LB agar dish of 10 cm on each side. The drops of 10 μl of different concentrations of peptides are deposited on the solidified ToPagar. The dish is cultured for 16 hours. Cecropin A at 20 μM, an insect peptide recognized as having antibacterial activity, serves as a positive control.

[3] = test system: Escherichia coli Strain DH5α; assay: as above
Protocol: as §1

[4] = test system: Xanthomonas campestris pv campestris strain 8004; assay: as above
Protocol: as §1

Substance	cytotoxic activity (fragmentation of nuclear DNA, TUNEL), in words [1]	Cecropin A 20 μM (positive control, antibacterial activity) [2]	Cecropin A 20 μM (positive control, antibacterial activity) [3]	Cecropin A 20 μM (positive control, antibacterial activity) [4]
MWWLVGLTPVELIHLSAFRERLSHL [Pep2S]	has a cytotoxic activity	–	–	–
MWWLVGLTPVELIHLCAFRERLSHL [Pep1S]	no longer has cytotoxic activity	–	–	–
Cecropin A [reference compound]	–	Positive	Positive	Positive
